Measurements as given in patent US6034134A, “1-Amino-alkylcyclohexane NMDA receptor antagonists” (Merz + Co. GmbH & Co., priority 1998, dated 2000).
pIC50: −log10 of the molar value. Where two headings read alike, the source gives them in different places.

Assays:
[1] = Maximal electroshock (MES)-induced convulsions in mice; assay type: in vivo; conditions: for ED50: Mus musculus, ip, 0.5 h, read-out: MES ED50
How it was run: (§1)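 Female NMR mice (18-28 g) received compounds in 0.9% saline, then traction reflex and rotarod (5 rpm, 1 min) tests preceded corneal MES (100 Hz, 0.5 s, 50 mA). Tonic hind-paw extension scored; ED50 values by Litchfield-Wilcoxon, therapeutic index = side-effect ED50 / anti-MES ED50.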

[2] = Procedure: All animals were kept with water and food ad libitum under a 12 hour light-dark cycle (light on at 6 a.m.) and at a controlled temperature (20±0.5° C.). All e experiments were performed between 10 a.m. and 5 p.m. Tested agents were injected 30 min. i.p. before the induction of convulsions if not stated otherwise (see below). All compounds were dissolved in 0.9% saline.
[3] = system: NMDA receptor; experiment: Patch clamp: NMDA-induced inward currents in cultured hippocampal neurones; assay type: cell-based, rat
How it was run: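 Whole-cell recordings at 20-22 °C from cultured E20–E21 rat hippocampal neurones, compounds applied by fast superfusion against NMDA-evoked currents, with 1 μM glycine in all solutions and TTX extracellular; CsCl-based pipette solution, pH 7.3. IC50 from four-parameter logistic fit; only cells recovering ≥75% after antagonist kept.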

[4] = system: cortical neurones; experiment: Excitotoxicity: glutamate toxicity in cultured cortical neurones (MTT); assay type: cell-based, rat; conditions: Rattus norvegicus, Cortical neurone
How it was run: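 Fetal Wistar rat cortical neurones (day 12-14 in culture, astrocyte-conditioned medium) exposed 20 h to 100 μM glutamate plus test drug in serum-free Neurobasal medium. Viability by MTT reduction read at 570 nm; IC50 by four-parameter logistic fit.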

[5] = Traction reflex test (myorelaxant action) in mice, therapeutic index versus MES; assay type: in vivo; conditions: ED50 for traction reflex impairment divided by ED50 for MES; for TI Tract: 30 min; for selectivity ratio at 0.5 h: mouse, in vivo, ip, read-out: TI Tract
How it was run: as §1

[6] = Table 7, mice, i.p., 30 min before
[7] = Table 8, mice, i.p., 95% confidence limits in parentheses
[8] = Table 7; NMDA 200 μM with glycine 1 μM at -70 mV; read-out: Patch Clamp IC50
[9] = Table 9; NMDA-induced currents; read-out: Patch Clamp IC50
[10] = Table 7, 100 μM glutamate, 20 h, read-out: Glut. Tox. IC50
[11] = Table 9, 100 μM glutamate, read-out: Glut Tox IC50

Compound	ED50 [1, 6] [mg/kg]	ED50 [1, 7] [mg/kg]	Min Lethality ([2]; i.p., minimal lethal dose) [mg/kg]	pIC50 [3, 8]	pIC50 [3, 9]	pIC50 [4, 10]	pIC50 [4, 11]	TI Tract [5]	Min Lethality ([2]; mouse, in vivo, ip) [mg/kg]	selectivity ratio at 0.5 h [5]	ED50 [1] [mg/kg]	MES ED50 ([1]; Table 8, mice, i.p., 95% confidence limits in parentheses, 30 min)	pIC50 ([3]; read-out: Patch Clamp IC50; Table 7; NMDA 200 μM with glycine 1 μM at -70 mV)	pIC50 ([3]; read-out: Patch Clamp IC50; Table 9; NMDA-induced currents)	pIC50 ([4]; 20 h, read-out: Glut. Tox. IC50)	pIC50 ([4]; read-out: Glut Tox IC50)
CC1CC(C)CC(C)(N)C1 (stereo not shown) [Mrz 2/616, 1-amino-1,3,5-trimethylcyclohexane]	24	24	> 50	4.47	4.48	5.04	5.04	1.0								
CCC1(C)CCCC(C)(N)C1 (stereo not shown) [Mrz 2/620]	41.3	41.3		4.00	4.00	4.42	4.42		> 50	1.6						
CC1(C)CCCC(C)(N)C1 (stereo not shown) [Mrz 2/621]			> 60							1.8	36.9	36.9 (22.6-60.3) mg/kg	4.03	4.03	< 4.00	< 4.00
CCC1(CC)CC(C)(C)CC(C)(N)C1 (stereo not shown) [Mrz 2/623, 1-amino-1,5,5-trimethyl-3,3-diethylcyclohexane]	13.1	13.1	> 30	5.43	5.43	5.35	5.35	1.4								
CCCC1(CCC)CC(C)(C)CC(C)(N)C1 (stereo not shown) [Mrz 2/626]	41.2	41.2		5.02	5.02	4.72	4.72		> 50	1.1						
CCNC1(C)CC(C)(C)CC(C)(C)C1 [Mrz 2/639, N-ethyl-1-amino-1,3,3,5,5-pentamethylcyclohexane]	5.5	5.87	30	5.13	5.13	5.24	5.20	2.6								
CNC1(C)CC(C)(C)CC(C)(C)C1.Cl [Mrz 2/640, N,1,3,3,5,5-hexamethylcyclohexanamine hydrochloride]	8.2	8.18	108	4.84	4.84	5.08	5.08	2.3								
CC1(C)CC(CCN)CC(C)(C)C1 [Mrz 2/644]	53	53		5.39	5.39	5.37	5.37	0.5	> 35							
